Source: patent US20260242373A1, “NBD1 MODULATORS AND METHODS OF USING THE SAME” (Sionna Therapeutics Inc., priority 2023, published 2026)

These compounds were tested on NBD1 (assay: Aggregation analysis of NBD1 thermal stability by differential static light scattering (DSLS)). Conditions: 100 μM compound; ΔTagg versus DMSO control.
Assay type: binding, Human
Method: Purified recombinant NBD1 was produced using previously described methods (A. Schmidt, J. L. Mendoza, P. J. Thomas (2011) Biochemical and Biophysical Approaches to Probe CFTR Structure (365-376) M. D. Amaral, K. Kunzelmann (eds.), Cystic Fibrosis, Methods in Molecular Biology 741, Springer Science+Business Media). The effect of test compounds on thermal stability of NBD1 was evaluated by differential static light scattering (DSLS) using the Harbinger Stargazer-384 instrument (Epiphyte Three, Toronto, Canada). Test compounds were dissolved and diluted to desired concentrations in 100% DMSO. The compounds or DMSO controls (100 nL) were stamped into wells of a […] low volume optical plate (Corning Inc., Corning, NY) using the Echo 555 acoustic liquid handler (Labcyte Inc., San Jose, CA).
NBD1 protein was diluted to 0.2 mg/ml in S200 buffer (50 mM Tris-HCl, 150 mM NaCl, 5 mM MgCl2, 2 mM ATP, 2 mM DTT, pH7.6) containing 1% glycerol. 10 uL of protein solution was aliquoted into the 384-well plate harboring the test compounds and 10 uL mineral oil was overlayed onto the protein solution, using the epMotion robotic liquid handler (Eppendorf North America, Hauppauge, NY). After placing into the Stargazer instrument, the plate was heated at 1° C. per minute to 70° C. Images were captured from 25° C. to 70° C. every 0.5° C. At the end of the experiment run, instrument software integrated image files and analyzed data automatically. A […] regression curve was generated for each well, representing the increase in light scattering over time. A temperature of aggregation (Tagg) was calculated based on the inflection point of the curve. To better compare data across experiments the average Tagg for DMSO control wells was calculated and subtracted from values for wells containing compounds to obtain a “ΔTagg” value. These ΔTagg values reflect stabilizing efficacy of the compounds.

Row | Compound | DSLS NBD1/3D Human Stability delta-T (° C.) @ 100 (μM)
1 | Cn1cc(Cc2cnc(-c3cccc(Oc4ccc5[nH]ccc5c4)c3)[nH]2)cn1 [Compound 28, 5-(3-(5-((1-methyl-1H-pyrazol-4-yl)methyl)-1H-imidazol-2-yl)phenoxy)-1H-indole] | C (C: ≤4° C.)
2 | Cn1nccc1C(O)c1cnc(-c2cccc(Oc3ccc4[nH]cnc4c3)c2)[nH]1 (centres unmarked) [Compound 29, (2-(3-((1H-benzo[d]imidazol-5-yl)oxy)phenyl)-1H-imidazol-5-yl)(1-methyl-1H-pyrazol-5-yl)methanol] | C (C: ≤4° C.)
3 | Cn1cc(C(O)c2nnc(-c3cccc(Oc4ccc5[nH]ccc5c4)c3)[nH]2)cn1 (centres unmarked) [Compound 30, (5-(3-((1H-indol-5-yl)oxy)phenyl)-4H-1,2,4-triazol-3-yl)(1-methyl-1H-pyrazol-4-yl)methanol] | B (B: 4-8° C.)
4 | Cn1cc(Cc2nnc(-c3cccc(Oc4ccc5[nH]ccc5n4)c3)[nH]2)cn1 [Compound 31, 5-(3-(5-((1-methyl-1H-pyrazol-4-yl)methyl)-4H-1,2,4-triazol-3-yl)phenoxy)-1H-pyrrolo[3,2-b]pyridine] | C (C: ≤4° C.)
5 | Cn1cc(C(O)c2cnc(-c3cccc(Oc4ccc5[nH]ccc5n4)c3)[nH]2)cn1 (centres unmarked) [Compound 32, (2-(3-((1H-pyrrolo[3,2-b]pyridin-5-yl)oxy)phenyl)-1H-imidazol-5-yl)(1-methyl-1H-pyrazol-4-yl)methanol] | C (C: ≤4° C.)
6 | Cn1nccc1C(O)c1cnc(-c2cccc(Oc3ccc4[nH]ccc4n3)c2)[nH]1 (centres unmarked) [Compound 33, (2-(3-((1H-pyrrolo[3,2-b]pyridin-5-yl)oxy)phenyl)-1H-imidazol-5-yl)(1-methyl-1H-pyrazol-5-yl)methanol] | C (C: ≤4° C.)
7 | OC(Cc1nccs1)c1cnc(-c2cccc(Oc3ccc4[nH]cnc4c3)c2)[nH]1 (centres unmarked) [Compound 34, 1-(2-(3-((1H-benzo[d]imidazol-5-yl)oxy)phenyl)-1H-imidazol-5-yl)-2-(thiazol-2-yl)ethan-1-ol] | C (C: ≤4° C.)
8 | Cc1ncc(C(O)c2nnc(-c3cccc(Oc4ccc5[nH]cnc5c4)c3)[nH]2)s1 (centres unmarked) [Compound 35, (5-(3-((1H-benzo[d]imidazol-5-yl)oxy)phenyl)-4H-1,2,4-triazol-3-yl)(2-methylthiazol-5-yl)methanol] | C (C: ≤4° C.)
9 | Cc1ncc(C(N)c2nnc(-c3cccc(Oc4ccc5[nH]cnc5c4)c3)[nH]2)s1 (centres unmarked) [Compound 36, (5-(3-((1H-benzo[d]imidazol-5-yl)oxy)phenyl)-4H-1,2,4-triazol-3-yl)(2-methylthiazol-5-yl)methanamine] | C (C: ≤4° C.)
10 | Cc1ncc(C(O)c2nnc(-c3cccc(Oc4ccc5[nH]ccc5c4CO)c3)[nH]2)s1 (centres unmarked) [Compound 37, (5-(3-((4-(hydroxymethyl)-1H-indol-5-yl)oxy)phenyl)-4H-1,2,4-triazol-3-yl)(2-methylthiazol-5-yl)methanol] | B (B: 4-8° C.)
11 | Cc1ncc(C(O)c2nnc(-c3cccc(Oc4ccc5[nH]ccc5c4C(=O)O)c3)[nH]2)s1 (centres unmarked) [Compound 38, 5-(3-(5-(hydroxy(2-methylthiazol-5-yl)methyl)-4H-1,2,4-triazol-3-yl)phenoxy)-1H-indole-4-carboxylic acid] | C (C: ≤4° C.)
12 | Cc1ncc(C(O)c2nnc(-c3cccc(Oc4ccc5[nH]ccc5c4C(N)=O)c3)[nH]2)s1 (centres unmarked) [Compound 39, 5-(3-(5-(hydroxy(2-methylthiazol-5-yl)methyl)-4H-1,2,4-triazol-3-yl)phenoxy)-1H-indole-4-carboxamide] | B (B: 4-8° C.)
13 | OCc1c(Oc2cccc(-c3nnc(C(O)c4cncs4)[nH]3)c2)ccc2[nH]ccc12 (centres unmarked) [Compound 40, (5-(3-((4-(hydroxymethyl)-1H-indol-5-yl)oxy)phenyl)-4H-1,2,4-triazol-3-yl)(thiazol-5-yl)methanol] | B (B: 4-8° C.)
14 | CN(C)CCNC(=O)c1c(Oc2cccc(-c3nnc(C(O)c4cncs4)[nH]3)c2)ccc2[nH]ccc12 (centres unmarked) [Compound 41, N-(2-(dimethylamino)ethyl)-5-(3-(5-(hydroxy(thiazol-5-yl)methyl)-4H-1,2,4-triazol-3-yl)phenoxy)-1H-indole-4-carboxamide] | C (C: ≤4° C.)
15 | O=C(NCC(O)C(F)(F)F)c1c(Oc2cccc(-c3nnc(C(O)c4cncs4)[nH]3)c2)ccc2[nH]ccc12 (centres unmarked) [Compound 42, 5-(3-(5-(hydroxy(thiazol-5-yl)methyl)-4H-1,2,4-triazol-3-yl)phenoxy)-N-(3,3,3-trifluoro-2-hydroxypropyl)-1H-indole-4-carboxamide] | B (B: 4-8° C.)
16 | O=C(O)CCc1ccc(Cc2cnc(-c3cc(Oc4c(F)cc5[nH]ccc5c4F)ccc3F)[nH]2)s1 [Compound 43, 3-(5-((2-(5-((4,6-difluoro-1H-indol-5-yl)oxy)-2-fluorophenyl)-1H-imidazol-5-yl)methyl)thiophen-2-yl)propanoic acid] | A (A: T ≥8° C.)
17 | CC(c1cccc(CCC(=O)O)c1F)c1nc(-c2cc(Oc3c(F)cc4[nH]ccc4c3F)ccc2F)n2ccccc12 (centres unmarked) [Compound 46, 3-(3-(1-(3-(5-((4,6-difluoro-1H-indol-5-yl)oxy)-2-fluorophenyl)imidazo[1,5-a]pyridin-1-yl)ethyl)-2-fluorophenyl)propanoic acid] | C (C: ≤4° C.)
18 | CC(c1cccc(CCC(=O)O)c1F)c1nc(-c2cc(Oc3c(F)cc4[nH]ccc4c3F)ccc2F)n2c1CCCC2 (centres unmarked) [Compound 47, 3-(3-(1-(3-(5-((4,6-difluoro-1H-indol-5-yl)oxy)-2-fluorophenyl)-5,6,7,8-tetrahydroimidazo[1,5-a]pyridin-1-yl)ethyl)-2-fluorophenyl)propanoic acid] | C (C: ≤4° C.)
19 | CC(c1cc(N)n(-c2cc(Oc3c(F)cc4[nH]ccc4c3F)ccc2F)n1)c1cccc(CCC(=O)O)c1F (centres unmarked) [Compound 48, 3-(3-(1-(5-amino-1-(5-((4,6-difluoro-1H-indol-5-yl)oxy)-2-fluorophenyl)-1H-pyrazol-3-yl)ethyl)-2-fluorophenyl)propanoic acid] | B (B: 4-8° C.)
20 | CCOc1cc(C(C)c2cccc(CCC(=O)O)c2F)nn1-c1cc(Oc2c(F)cc3[nH]ccc3c2F)ccc1F (centres unmarked) [Compound 49, 3-(3-(1-(1-(5-((4,6-Difluoro-1H-indol-5-yl)oxy)-2-fluorophenyl)-5-ethoxy-1H-pyrazol-3-yl)ethyl)-2-fluorophenyl)propanoic acid] | B (B: 4-8° C.)
21 | COc1cc(C(C)c2cccc(CCC(=O)O)c2F)nn1-c1cc(Oc2c(F)cc3[nH]ccc3c2F)ccc1F (centres unmarked) [Compound 50, 3-(3-(1-(1-(5-((4,6-difluoro-1H-indol-5-yl)oxy)-2-fluorophenyl)-5-methoxy-1H-pyrazol-3-yl)ethyl)-2-fluorophenyl)propanoic acid] | B (B: 4-8° C.)
22 | CC(C1=NN(c2cc(Oc3c(F)cc4[nH]ccc4c3F)ccc2F)C(=O)C1)c1cccc(CCC(=O)O)c1F (centres unmarked) [Compound 51, 3-(3-(1-(1-(5-((4,6-difluoro-1H-indol-5-yl)oxy)-2-fluorophenyl)-5-oxo-4,5-dihydro-1H-pyrazol-3-yl)ethyl)-2-fluorophenyl)propanoic acid] | B (B: 4-8° C.)
23 | CSc1cc(C(C)c2cccc(CCC(=O)O)c2F)nn1-c1cc(Oc2c(F)cc3[nH]ccc3c2F)ccc1F (centres unmarked) [Compound 52, 3-(3-(1-(1-(5-((4,6-difluoro-1H-indol-5-yl)oxy)-2-fluorophenyl)-5-(methylthio)-1H-pyrazol-3-yl)ethyl)-2-fluorophenyl)propanoic acid] | C (C: ≤4° C.)
24 | CC(c1noc(-c2cc(Oc3c(F)cc4[nH]ccc4c3F)ccc2F)n1)c1cccc(CCC(=O)O)c1F (centres unmarked) [Compound 53, 3-(3-(1-(5-(5-((4,6-difluoro-1H-indol-5-yl)oxy)-2-fluorophenyl)-1,2,4-oxadiazol-3-yl)ethyl)-2-fluorophenyl)propanoic acid] | B (B: 4-8° C.)
25 | Cc1c(Oc2cccc(-c3nn(Cc4cccc(CCC(=O)O)c4)cc3F)c2)c(F)cc2[nH]ccc12 [Compound 54, 3-(3-((4-fluoro-3-(3-((6-fluoro-4-methyl-1H-indol-5-yl)oxy)phenyl)-1H-pyrazol-1-yl)methyl)phenyl)propanoic acid] | B (B: 4-8° C.)
26 | CC(c1cccc(CC(=O)O)c1F)n1cc(F)c(-c2ccc(F)c(Oc3c(F)cc4[nH]ccc4c3S(C)(=O)=O)c2)n1 (centres unmarked) [Compound 55, 2-(2-fluoro-3-(1-(4-fluoro-3-(4-fluoro-3-((6-fluoro-4-(methylsulfonyl)-1H-indol-5-yl)oxy)phenyl)-1H-pyrazol-1-yl)ethyl)phenyl)acetic acid] | A (A: T ≥8° C.)
